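All cell lines were grown in 96-well plates and treated with compound for 48 hours. GI50 = concentration required for 50% inhibition of growth.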 The source made the active and inactive calls. No stated cut-off is given here; in the data, active = GI50 up to about 1.1 µM and inactive = higher.
Tests used:
Experiment in all cases: NCI-60 cell line screen, 48 h
NCI-H460 = tested on: NCI-H460
SK-OV-3 = tested on: SK-OV-3
A498 = tested on: A498
RPMI-8226 = tested on: RPMI-8226
SF-539 = tested on: SF-539
UO-31 = tested on: UO-31
MDA-MB-435 = tested on: MDA-MB-435
K562 = tested on: K562
HOP-92 = tested on: HOP-92
OVCAR-3 = tested on: OVCAR-3
TK-10 = tested on: TK-10
SK-MEL-2 = tested on: SK-MEL-2
HOP-62 = tested on: HOP-62
Hs-578T = tested on: Hs-578T
PC-3 = tested on: PC-3
786-0 = tested on: 786-0
IGROV-1 = tested on: IGROV-1
SNB-75 = tested on: SNB-75
NCI-H226 = tested on: NCI-H226
KM12 = tested on: KM12

Measured: GI50

C/C=C1\CNC1C(=O)O (configuration not stated)
inactive: NCI-H460 > 100 µM | SK-OV-3 > 100 µM | A498 > 100 µM | RPMI-8226 > 100 µM | SF-539 > 100 µM | UO-31 > 100 µM | MDA-MB-435 > 100 µM | K562 > 100 µM | HOP-92 > 100 µM | OVCAR-3 > 100 µM | TK-10 > 100 µM | SK-MEL-2 > 100 µM | HOP-62 > 100 µM | Hs-578T > 100 µM | PC-3 > 100 µM | 786-0 > 100 µM | IGROV-1 > 100 µM

COc1ccc(C2=NN(c3ccccc3)C(c3cc4cc(Br)ccc4nc3Cl)C2)cc1 (configuration not stated)
inactive: SK-OV-3 > 25 µM | SNB-75 > 25 µM | RPMI-8226 > 25 µM | SF-539 > 25 µM | UO-31 > 25 µM | MDA-MB-435 14.3 µM | NCI-H226 > 25 µM | K562 14.1 µM | HOP-92 > 25 µM | OVCAR-3 > 25 µM | SK-MEL-2 > 25 µM | HOP-62 18.8 µM | Hs-578T > 25 µM | PC-3 23 µM | 786-0 > 25 µM | IGROV-1 15.2 µM | KM12 11.4 µM

O=C(CCCCCC(=O)N1CC(CCl)c2ccc([N+](=O)[O-])cc21)N1CC(CCl)c2ccc([N+](=O)[O-])cc21 (configuration not stated)
inactive: NCI-H460 34 µM | SK-OV-3 > 100 µM | SNB-75 48.1 µM | A498 87.1 µM | SF-539 > 100 µM | UO-31 > 100 µM | MDA-MB-435 > 100 µM | NCI-H226 > 100 µM | K562 > 100 µM | HOP-92 > 100 µM | OVCAR-3 > 100 µM | TK-10 > 100 µM | SK-MEL-2 > 100 µM | HOP-62 95.7 µM | Hs-578T > 100 µM | PC-3 > 100 µM | 786-0 > 100 µM | IGROV-1 > 100 µM | KM12 > 100 µM

O=C(Cn1c2ccc(Br)cc2c2nc3ccccc3nc21)NCc1ccccc1
inactive: NCI-H460 > 100 µM | SK-OV-3 44.3 µM | SNB-75 4.45 µM | A498 31.2 µM | RPMI-8226 > 100 µM | UO-31 > 100 µM | MDA-MB-435 > 100 µM | NCI-H226 78.7 µM | K562 > 100 µM | HOP-92 2.01 µM | OVCAR-3 > 100 µM | TK-10 17.7 µM | SK-MEL-2 25.3 µM | HOP-62 23 µM | Hs-578T 22.1 µM | PC-3 > 100 µM | 786-0 13 µM | IGROV-1 67 µM | KM12 > 100 µM

COP(=O)(O)/C=C/C(NC(=O)C(Cl)(Cl)Cl)c1ccccc1 (configuration not stated)
inactive: NCI-H460 > 100 µM | SK-OV-3 > 100 µM | SNB-75 > 100 µM | A498 > 100 µM | RPMI-8226 > 100 µM | UO-31 > 100 µM | MDA-MB-435 > 100 µM | NCI-H226 > 100 µM | K562 > 100 µM | HOP-92 > 100 µM | OVCAR-3 > 100 µM | TK-10 > 100 µM | SK-MEL-2 > 100 µM | HOP-62 > 100 µM | Hs-578T > 100 µM | PC-3 > 100 µM | 786-0 > 100 µM | IGROV-1 > 100 µM | KM12 > 100 µM

CSC[C@H](NC(=O)COc1cccc2cnccc12)C(=O)NC(Cc1ccccc1)C(O)C(=O)N1CSC[C@H]1C(=O)NC(C)(C)C (some centres not stated)
inactive: NCI-H460 38.9 µM | SK-OV-3 > 100 µM | SNB-75 78.9 µM | A498 68.2 µM | RPMI-8226 23.6 µM | SF-539 11 µM | UO-31 86.3 µM | MDA-MB-435 87.5 µM | NCI-H226 > 100 µM | K562 32.5 µM | OVCAR-3 69.8 µM | TK-10 > 100 µM | SK-MEL-2 > 100 µM | HOP-62 > 100 µM | Hs-578T 89.3 µM | PC-3 24 µM | 786-0 44.5 µM | IGROV-1 > 100 µM | KM12 53.2 µM

COC1(c2ccc(Cl)cc2)SC=C(C)n2c1noc2=O (configuration not stated)
inactive: NCI-H460 > 100 µM | A498 > 100 µM | RPMI-8226 > 100 µM | UO-31 > 100 µM | MDA-MB-435 > 100 µM | K562 > 100 µM | HOP-92 > 100 µM | OVCAR-3 29.7 µM | Hs-578T > 100 µM | PC-3 > 100 µM | 786-0 > 100 µM | IGROV-1 > 100 µM | KM12 86.9 µM

CN(C)Cc1cc(C(=O)/C=C/c2c(F)cccc2Cl)cc(CN(C)C)c1O
inactive: NCI-H460 2.37 µM | SK-OV-3 14.1 µM | SNB-75 8.53 µM | A498 6.5 µM | RPMI-8226 17.2 µM | UO-31 3.7 µM | MDA-MB-435 13.8 µM | NCI-H226 13.5 µM | K562 4.09 µM | HOP-92 7.52 µM | OVCAR-3 9.18 µM | TK-10 3.04 µM | SK-MEL-2 15.6 µM | HOP-62 12 µM | Hs-578T 17.5 µM | PC-3 13.7 µM | 786-0 5.61 µM | IGROV-1 5.47 µM | KM12 12.8 µM
